Laboratory results published in the NIST ThermoML archive (doi:10.1021/je034290l).

Experiments:
[1] = Liquid; for mass density: 318.15 K, 101.33 kPa
[2] = refractive index (Na D-line) (dimensionless); conditions: 318.15 K; 101.33 kPa; Liquid; Standard Abbe refractometry

CCC(=O)OC [methyl propanoate]
Conditions | mass density [kg/m3] | refractive index
[1] | 884.3 | –
[2] | – | 1.3641

[1]
Conditions | vapor or sublimation pressure [kPa]
325.88 K | 40.08
327.07 K | 42.57
328.03 K | 44.13
329 K | 45.29
329.68 K | 46.72
330.24 K | 47.97
330.7 K | 49.34
332 K | 50.58
332.74 K | 51.89
333.19 K | 53.37
334.04 K | 54.63
334.49 K | 55.93
335.63 K | 57.49
335.97 K | 58.57
336.7 K | 60.05
337.5 K | 61.5
338.06 K | 62.73
338.52 K | 64.17
339.43 K | 66.58
339.71 K | 67.89
340.73 K | 69.17
341.07 K | 70.53
341.52 K | 71.89
341.72 K | 72.42
342.35 K | 73.37
342.6 K | 75.37
342.88 K | 75.83
343.25 K | 75.91
343.95 K | 77.99
344.15 K | 78.43
344.25 K | 78.74
344.75 K | 79.89
345.4 K | 82.35
345.65 K | 82.59
346.32 K | 84.18
346.57 K | 85.43
346.65 K | 86.74
347.23 K | 87.87
347.4 K | 88.1
348.15 K | 90.74
348.73 K | 91.95
348.98 K | 93.23
349.23 K | 94.6
349.73 K | 96.03
350.23 K | 97.26
350.59 K | 98.7
350.99 K | 100
351.65 K | 101.32
352.23 K | 102.75
352.4 K | 103.87
352.82 K | 105.43
352.9 K | 106.58
353.73 K | 107.82
353.82 K | 109.39
354.15 K | 110.78
354.57 K | 112.07
354.82 K | 113.15
355.65 K | 114.82
355.74 K | 115.9
355.82 K | 117.13
356.32 K | 118.57
356.9 K | 120.15
357.15 K | 121.17
357.39 K | 122.81
357.9 K | 123.81
358.24 K | 124.65
358.48 K | 126.73
358.65 K | 127.87
358.98 K | 129.37
359.32 K | 130.43
359.48 K | 130.89
359.98 K | 133.25
360.4 K | 134.57
360.57 K | 135.81
361.08 K | 137.35
361.4 K | 138.56
361.73 K | 140
361.9 K | 141.21
362.44 K | 142.57
362.57 K | 144.11
363.07 K | 145.35
363.4 K | 146.48
363.73 K | 148.09
363.91 K | 149.39
364.4 K | 151.04
364.57 K | 152.48
364.9 K | 153.26
364.99 K | 154.82
365.38 K | 156.06
365.48 K | 156.17
365.82 K | 158.49
365.9 K | 159.73
366.15 K | 160.57
366.57 K | 162.57
366.65 K | 163.38
367.15 K | 165.17
367.4 K | 166.74
367.82 K | 167.89

CC(C)(C)O [2-methylpropan-2-ol]
Conditions | mass density [kg/m3] | refractive index
[1] | 759.87 | –
[2] | – | 1.3741
